What was measured:
[1] = tested on: AP-1 activity in A431 cells; assay: AP-1 luciferase reporter assay in control or TOPK knockdown cells; assay type: cell-based, human
Method: The cells were cultured, treated for 4 h with different concentrations of compound 1 and then exposed to SUV (60 kJ UVA/m^2 and 2.9 kJ UVB/m^2), followed by an additional 15-minute incubation. Cells were harvested and the levels of phosphorylated and total proteins were determined by Western blot analysis with specific antibodies as indicated. […] The cells were cultured and treated with different concentrations of compound 1 for 24 h. Cells were harvested and the levels of phosphorylated and total proteins were determined by Western blot analysis with specific antibodies as indicated. […] For the luciferase assay, JB6 P+ cells stably transfected with an AP-1 luciferase reporter plasmid were cultured. […] Luciferase activity was measured and AP-1 activity is expressed relative to control cells without SUV treatment. […] Luciferase and 3-galactosidase activities were measured using reagents included in the reporter assay system (right). […] Significant differences were evaluated using one-way ANOVA and the asterisks (*) indicate a significant effect (*, p<0.05; **, p<0.001; ***, p<0.0001). […]
Stable control or TOPK knockdown cells were co-transfected with 100 ng of the AP-1 luciferase reporter plasmid and 50 ng of an internal control […] plasmid. […] Luciferase and β-galactosidase activities were measured using the Luminoskan Ascent and Multiskan MCC (Labsystems), respectively. […]

[2] = molecular target: T1, active TOPK (Homo sapiens, UniProt Q96KB5); assay: ATP competition pull-down assay with compound 1-conjugated Sepharose 4B beads; assay type: binding; conditions: ATP 0, 10 or 100 μM; active TOPK 200 ng
T1 construct: purchased SignalChem (Richmond, BC, Canada)
T1 sequence (Q96KB5 1-322): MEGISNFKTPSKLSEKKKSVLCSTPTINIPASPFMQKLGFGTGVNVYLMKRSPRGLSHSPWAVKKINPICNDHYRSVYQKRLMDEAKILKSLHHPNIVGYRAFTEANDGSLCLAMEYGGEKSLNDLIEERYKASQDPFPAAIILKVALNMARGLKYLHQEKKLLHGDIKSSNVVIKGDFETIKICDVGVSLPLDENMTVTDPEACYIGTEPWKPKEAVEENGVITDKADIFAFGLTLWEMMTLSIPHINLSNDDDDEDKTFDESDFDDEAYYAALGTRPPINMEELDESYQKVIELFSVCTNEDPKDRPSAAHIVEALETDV
Method: Active TOPK (200 ng) was incubated with different concentrations of ATP (0, 10 or 100 μM) and then mixed with compound 1-conjugated Sepharose 4B beads or Sepharose 4B beads. Proteins were pulled down and analyzed by Western blot. Data are representative of 3 independent experiments that gave similar results. FIGS. 2C and 2D show compound 1 binds to either TOPK (2C) or MEK1/2 (2D) ex vivo. Lysates from HaCaT cells (500 μg) were incubated with compound 1-conjugated Sepharose 4B beads or Sepharose 4B beads alone and the pulled-down proteins were analyzed by Western blot. Data are representative of 3 independent experiments that gave similar results. FIGS. 2E and 2F show compound 1 inhibits TOPK kinase (2E) activity but not MEK1 kinase (2F) activity in vitro. Active TOPK (200 ng) was mixed with compound 1 (0, 0.5, 1, 3, or 5 μM) or HI-032 (TOPK inhibitor, 10 μM) and then incubated with a [γ-^32P] ATP mixture. Similarly, MEK1 (200 ng) was mixed with compound 1 (0, 0.5, 1, 3, 5, or 10 μM) or PD098059 (MEK1 inhibitor, 5 μM) and then incubated with a [γ-^32P] ATP mixture. For 2E and 2F, the results are visualized by autoradiography and Coomassie blue staining serves as a loading control. Data are representative of 3 independent experiments that gave similar results. […]

binding ability with TOPK in presence of ATP [2]: altered in the presence of ATP
Structure (SMILES): O=C1Nc2ccc(C34CC5CC(CC(C5)C3)C4)cc2C1=NO [compound 1, 5-(adamantan-1-yl)-3-(hydroxyimino)indolin-2-one]
AP-1 activity ([1]; A431 TOPK knockdown group, highest concentration (5 μM)): only slightly affected
AP-1 activity ([1]; A431 control group, 24 h): inhibited by compound 1 in a dose-dependent manner
